Assay results reported in US6392049B1, “Process for preparing 2,4-dihydroxypyridine and 2,4-dihydroxy-3-nitropyridine” (Aventis Pharmaceuticals Inc., priority 1996, dated 2002).
Like-named read-outs stand apart in the source and are kept apart here.

Key:
A1 receptor = target: T1, A1 receptor (Rattus norvegicus, UniProt P25099); assay: A1 adenosine receptor binding, displacement of 3H-CHA, whole rat brain membranes; settings: 3H-CHA displacement, 25° C., 60 minutes
T1 construct: using a membrane preparation of whole rat brain; from tissue; host or cells: whole rat brain membranes
T1 sequence (P25099 1-326): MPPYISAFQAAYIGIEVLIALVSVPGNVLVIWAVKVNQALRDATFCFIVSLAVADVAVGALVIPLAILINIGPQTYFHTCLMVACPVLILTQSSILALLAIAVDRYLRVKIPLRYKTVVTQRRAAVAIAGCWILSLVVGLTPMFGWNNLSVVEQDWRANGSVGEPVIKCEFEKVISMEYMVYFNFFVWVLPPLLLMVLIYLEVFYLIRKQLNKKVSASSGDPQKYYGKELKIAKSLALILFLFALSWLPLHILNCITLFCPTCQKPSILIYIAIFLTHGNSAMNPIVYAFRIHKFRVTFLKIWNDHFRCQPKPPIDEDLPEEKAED
Description: Non-specific binding is assessed in the presence of 1 mM theophylline.
(§1) The assays are run in glass test tubes in duplicate at 25° C. Once the membranes are added, the tubes are vortexed and incubated at 25° C. for 60 minutes (A1 assay) or 90 minutes (A2 assay) on a rotary shaker. The assay tubes are vortexed halfway through the incubation and again near the end. The assays are terminated by rapid filtration through 2.4 cm GF/B filters using a Brandel Cell Harvestor. The test tubes are washed three times with cold 50 mM tris-HCl (pH 7.7 or 7.4), with filtration being completed within 15 seconds. The damp filter circles are placed in glass scintillation vials filled with 10 ml of Aquasol II (New England Nuclear). The vials are allowed to shake overnight on a rotary shaker and are placed into a liquid scintillation analyzer for two minute counts. IC50 values for receptor binding, i.e. the concentration at which a compound of Formula I displaced the radiolabeled standard, are obtained using a curve-fitting computer program (RS/1, Bolt, Beranek and Newman, Boston, Mass.).

A2 receptor = target: T2, A2 receptor (Rattus norvegicus, UniProt P30543); assay: A2 adenosine receptor binding, displacement of 3H-CGS 21680, rat brain striatum membranes
T2 construct: using membranes from rat brain striatum; from tissue; host or cells: rat brain striatum membranes
Description: Non-specific binding is assessed in the presence of 20 μm 2-chloroadenosine.
as §1

swine coronary arteries = assay: In vitro vasorelaxation in isolated swine coronary arteries; assay type: cell-based
Description: Swine coronary arteries are obtained from a local slaughter house, dissected carefully and cleaned of fat, blood and adhering tissue. Rings approximately 2-3 mm wide are cut and transferred to water-jacketed tissue baths (10 mL) filled with warm (37° C.), oxygenated (O2/CO2:95%/5%) Krebs-Henseleit buffer and mounted on L-shaped hooks between stainless steel rods and a force transducer. […] PGF2a, before being exposed to 3 μM PGF2a.

[1] = system: normotensive anesthetized rat; assay: Mean arterial blood pressure and heart rate in normotensive anesthetized rat; assay type: in vivo; settings: for Anesthetized Rat HR/ED25: intravenous dose lowering heart rate by 25%; for Anesthetized Rat MAP/ED25: intravenous dose lowering mean arterial pressure by 25%
Description: Normotensive rats are anesthetized with sodium pentobarbital (50 mg/kg, i.p.) and placed on a heated surgical table. Cannulas are inserted into the femoral artery and veined to allow the measurement of arterial pressure and to facilitate the intravenous administration of test compounds. The animals are allowed to equilibrate for 10 minutes after surgery. Mean arterial pressure is continuously measured and recorded and heart rate is monitored using the arterial pressure pulse to trigger a cardiotachometer. After baseline parameters are established and recorded, increasing doses (1, 3, 10, 30, 100, 300 and 1000 μg/kg) of the compound of Formula I to be tested are administered intravenously. Maximal changes in the cardiovascular parameters are observed after each dose of the adenosine agonist. Only one compound is administered per rat.

rat adipocytes = assay: Antilipolytic activity in rat adipocytes (in vitro lipolysis assay, glycerol production); assay type: cell-based; settings: for EC50: read-out: EC50 (50% inhibition of glycerol production); for inhibition at 1 µM: read-out: % Inhibition of glycerol production, 1 μM
Description: Adipose tissue is removed from anesthetized rats and rinsed twice in incubation medium (2.09 g sodium bicarbonate and 0.04 g EDTA, disodium salt, in 1 L Krebs buffer). Each rat (300-350g) yields approximately 4 ml of adipose tissue. The adipose tissue (35 mL) is cut into small pieces with scissors and washed with incubation medium (50 mL). The mixture is poured into the barrel of a 50 mL syringe to which is attached a short piece of clamped tubing instead of a needle. The aqueous phase is allowed to drain. A second wash with incubation medium is passed through the syringe. The tissue is added to 50 mL of collagenase solution (collagenase (90 mg), bovine serum albumin (BSA) (500 mg), and 0.1 M calcium chloride solution (1 mL), in incubation medium (50 mL)) in a 1 L bottle. The mixture is shaken in an environmental at 37 ° C. for about 60 minutes under an atmosphere of 95% oxygen/5% carbon dioxide to effect digestion of the tissue. The dispersed cells are poured through 2 layers of cheese cloth into a 100 mL plastic beaker. The undigested clumps in the cloth are rinsed once with incubation medium (20 mL). The cells in the beaker are centrifuged in 2 plastic tubes for 30 seconds at room temperature at 300 rpm. The aqueous phase is aspirated from beneath the loosely packed layer of floating fat cells and discarded. The adipocytes are gently poured into a 250 mL plastic beaker containing 100 mL of rinse solution (1 g BSA per 100 mL incubation medium). After gentle stirring the centrifugation step is repeated. Another wash with rinse solution follows. The cells are pooled and their volume is estimated with a graduated cylinder. The adipocytes are diluted in twice their volume of assay buffer (incubation medium (120 mL), BSA (1.2 g), pyruvic acid (13 mg)).
The assay is performed in 20 mL plastic scintillation vials and the total assay volume is 4.2 ml. Assay buffer (2.5 mL), diluted adipocytes (1.5 mL), and a solution of the compound to be tested (12.3 μL) adenosine agonist (12.3 μL; varying concentration) is incubated in the environmental shaker for 15 minutes, then the reaction is started with norepinephrine solution (41.2 μL) (10 nM, in a carrier solution containing water (100 mL), BSA (4 mg), and 0.1 M EDTA (20 μL))and adenosine deaminase (1 μg/ml, 41.2 μL). After sixty minutes in the shaker the reaction is terminated by putting the vials on ice. […] The hard lipid layer is removed by aspiration and the aqueous layer is assayed for glycerol (400 μL of sample). The positive control is done in the absence of any adenosine agonist, substituting water in place of the solution to be tested.

[2] = 3H-CGS 21680 displacement, rat brain striatum membranes, 25° C., 90 minutes, read-out: Adenosine Receptor Binding Activity/IC50 (nM) A2
[3] = Sus scrofa, read-out: Vasorelaxation in Swine Coronary Artery/IC50 (μM)
[4] = Adipocyte, rat adipocytes, norepinephrine-stimulated
[5] = Sus scrofa, read-out: Vasorelaxation (IC50)
[6] = 50% reduction in tension of rings contracted with 3 μM PGF2a, read-out: Vasorelaxation in Swine Coronary Artery/IC50

T2 sequence (P30543 whole entry): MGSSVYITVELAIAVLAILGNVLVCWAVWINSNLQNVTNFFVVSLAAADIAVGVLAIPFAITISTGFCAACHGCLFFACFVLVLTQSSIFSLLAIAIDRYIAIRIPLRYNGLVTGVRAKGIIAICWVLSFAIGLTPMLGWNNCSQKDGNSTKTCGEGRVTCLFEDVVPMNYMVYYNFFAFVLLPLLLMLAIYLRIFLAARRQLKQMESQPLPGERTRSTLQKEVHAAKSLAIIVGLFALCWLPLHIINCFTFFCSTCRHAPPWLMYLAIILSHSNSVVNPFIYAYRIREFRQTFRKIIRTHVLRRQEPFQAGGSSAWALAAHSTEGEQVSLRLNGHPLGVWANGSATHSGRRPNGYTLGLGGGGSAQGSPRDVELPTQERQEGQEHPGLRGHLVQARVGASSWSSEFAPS

Row | Structure (SMILES) | IC50 (A1 receptor) | IC50 (A2 receptor; [2]) | IC50 (swine coronary arteries; [6]) | Anesthetized Rat HR/ED25 [1] | Anesthetized Rat MAP/ED25 [1] | also measured
1 | CCNC(=O)[C@H]1C[C@@H](n2cnc3c(NCCc4cccs4)ccnc32)[C@H](O)[C@@H]1O (racemic) [Example 30, (±)-N6-[1-(thiopheny-2-yl)ethan-2-yl]-N′-1-deazaaristeromycin-5′-N-ethyl carboxamide] | 562 nM | > 1000 nM | – | >10 µg/kg | 6 µg/kg | IC50 (swine coronary arteries; [3]): 12.1 µM
2 | OC[C@H]1O[C@@H](n2cnc3c(N[C@@H]4CCCC[C@H]4c4cccs4)ncnc32)[C@H](O)[C@@H]1O (relative stereo) [Example 7, N^6-[trans-2-(thiophen-2-yl)-cyclohex-1-yl]adenosine] | 3.5 nM | 28 nM | – | 18 µg/kg | 6 µg/kg | IC50 (swine coronary arteries; [3]): 4 µM
3 | CCNC(=O)[C@H]1C[C@@H](n2cnc3c(NCCc4scnc4C)ncnc32)[C@H](O)[C@@H]1O (relative stereo) [Example 24, (±)-N^6-[2-(4″-methyl-5″-thiazolyl)ethyl]carbocydic adenosine-5′-N-ethyl carboxamide] | > 1000 nM | > 1000 nM | – | >10 µg/kg | 6 µg/kg | –
4 | CO[C@@H]1[C@H](O)[C@@H](CO)O[C@H]1n1cnc2c(N[C@@H]3CC=CC[C@H]3c3cccs3)ncnc21 (relative stereo) [Example 49, N^6-[trans-5-(2-thienyl)cyclohex-1-en-4-yl]-2′-O-methyladenosine] | 69 nM | 2880 nM | – | – | – | IC50 (swine coronary arteries; [3]): 9.81 µM; EC50 (rat adipocytes; [4]): 18.6 nM
5 | CCNC(=O)[C@H]1O[C@@H](n2cnc3c(N)nc(NCCc4ccc(CCC(=O)O)cc4)nc32)[C@H](O)[C@@H]1O [CGS21680, 2-[[2-[4-[2-carboxethyl)phenyl]ethyl]amino]-N-ethylcarboxamidoadenosine] | – | – | – | – | – | IC50 (swine coronary arteries; [5]): 0.08 µM; inhibition at 1 µM (rat adipocytes; Rattus norvegicus, Adipocyte): 0%; antilipolytic activity (rat adipocytes; statement in words): do not exhibit antilipolytic activity
6 | OC[C@H]1O[C@@H](n2cnc3c(NC4CCCC4)ncnc32)[C@H](O)[C@@H]1O [CPA, N-cyclopentyladenosine] | – | – | – | – | – | IC50 (A2 receptor): 1580 nM; IC50 (swine coronary arteries; [5]): 3.18 µM; inhibition at 0.1 µM (rat adipocytes; Rattus norvegicus, Adipocyte, read-out: % Inhibition of glycerol production, 0.1 μM): 97%; inhibition at 1 µM (rat adipocytes; Rattus norvegicus, Adipocyte): 100%; EC50 (rat adipocytes; Rattus norvegicus, Adipocyte): 0.31 nM
7 | C[C@H](Cc1cc2ccccc2s1)Nc1ncnc2c1ncn2[C@@H]1O[C@H](CO)[C@@H](O)[C@H]1O [Example 15, N^6-[(R)-1-methyl-2-(2′benzo-[b]-thiophenyl)ethyl]adenosine] | 4.07 nM | – | – | 1.4 µg/kg | 1.5 µg/kg | IC50 (swine coronary arteries; [3]): 2.45 µM
8 | CO[C@@H]1[C@H](O)[C@@H](CO)O[C@H]1n1cnc2c(N[C@H](C)Cc3ccc(Cl)s3)ncnc21 [Example 48, N^6-[2-(5-chloro-2-thienyl)-(1R)-1-methylethyl]-2′-O-methyladenosine] | 8.35 nM | 1440 nM | – | – | – | EC50 (rat adipocytes; [4]): 1.86 nM
9 | CCNC(=O)[C@H]1O[C@@H](n2cnc3c(N)ncnc32)[C@H](O)[C@@H]1O [NECA, N-ethylcarboxamido-adenosine] | – | – | – | – | – | EC50 (rat adipocytes; Rattus norvegicus, Adipocyte): 2.5 nM
10 | C[C@H](Cc1ccccc1)Nc1ncnc2c1ncn2[C@@H]1O[C@H](CO)[C@@H](O)[C@H]1O [R-PIA, R-phenylisopropyladenosine, reference compound] | – | – | – | – | – | IC50 (swine coronary arteries; literature compounds, Table V, methods as above, unit inferred, read-out: Vasorelaxation (IC50)): 0.76 µM; EC50 (rat adipocytes; rat adipocytes, norepinephrine-stimulated): 1 nM

Second part, led by results:

Row | IC50 (A1 receptor) | IC50 (A2 receptor; [2]) | IC50 (swine coronary arteries; [6]) | Structure (SMILES) | Anesthetized Rat HR/ED25 [1] | Anesthetized Rat MAP/ED25 [1] | also measured
11 | 5 nM | 138 nM | – | OC[C@H]1O[C@@H](n2cnc3c(N[C@@H]4CC=CC[C@H]4c4ccsc4)ncnc32)[C@H](O)[C@@H]1O (relative stereo) [Example 8, N^6-[trans-2-(thiophen-3-yl)-cyclohex-4-en-1-yl]adenosine] | 23 µg/kg | 10 µg/kg | –
12 | 4 nM | 1000 nM | 11.9 µM | OC[C@H]1O[C@@H](n2cnc3c(NCCNc4nc5ccccc5s4)ncnc32)[C@H](O)[C@@H]1O [Example 9, N^6-[2-(2′-aminobenzothia-zolyl)ethyl]adenosine] | 4 µg/kg | 5 µg/kg | –
13 | 23 nM | 224 nM | 0.5 µM | Cc1ncsc1CCNc1ncnc2c1ncn2[C@@H]1O[C@H](CO)[C@@H](O)[C@H]1O [Example 12, N^6-[2-(4′-methylthiazol-5′-yl)-ethyl]adenosine] | 17 µg/kg | 4 µg/kg | –
14 | 41 nM | 191 nM | 0.24 µM | OC[C@H]1O[C@@H](n2cnc3c(NCCc4nccs4)ncnc32)[C@H](O)[C@@H]1O [Example 13, N^6-[2-(2′-thiazolyl)ethyl]-adenosine] | >10 µg/kg | 3 µg/kg | –
15 | 166 nM | 52 nM | 0.46 µM | Cc1csc(CNc2ncnc3c2ncn3[C@@H]2O[C@H](CO)[C@@H](O)[C@H]2O)n1 [Example 18, N^6-[2-(4′-methyl-2′-thiazolyl)-methyl]adenosine] | >10 µg/kg | 2 µg/kg | –
16 | 0.32 nM | 891 nM | 4.4 µM | CCNC(=O)[C@H]1O[C@@H](n2cnc3c(NCCNc4nc5ccccc5s4)ncnc32)[C@H](O)[C@@H]1O [Example 23] | 7 µg/kg | 6 µg/kg | –
